Measured values reported in patent US20260138969A1 (Korea Research Institute of Chemical Technology, priority 2023, published 2026).

Legend:
[1] = test system: MPTP-induced PD mouse model; experiment: MPTP-induced PD mouse model: TH staining of striatum and substantia nigra; format: in vivo; settings: PO QD Day 1-7; Nilotinib 40 mg/kg, Example 3 2/10/50 mg/kg, Example 2 50 mg/kg; vs MPTP group G2
Description: Mice at 7 weeks of age were divided into 7 groups as shown in Table 9 below to generate an acute MPTP model and proceed with drug administration: control group+vehicle (G1), MPTP+vehicle (G2), MPTP+Nilotinib 40 mg/kg (G3), MPTP+Example 3 2 mg/kg (G4), MPTP+Example 3 10 mg/kg (G5), MPTP+Example 3 50 mg/kg (G6), and MPTP+Example 2 50 mg/kg (G7). The test drug was administered orally (PO) at 10 ml/kg once daily (QD) from Day 1 to Day 7. The acute MPTP model will be performed at 2-hour intervals in all groups except the control group. […] was administered as intraperitoneal (IP) injection for 4 doses. The control group was given the same amount of 0.9% saline. The Pole test was performed on day 4 (after training on day 2 and day 3). On day 7, all mice were euthanized, and their brains were harvested.
Mice were euthanized with Zoletil administration for collection of tissue samples for staining and analysis of histological sections. Blood was collected from the heart of the mouse and then the residual blood was perfused with phosphate-buffered saline (PBS). For half of the mice (n=6/group), the brain was incised into the striatum, substantia nigra, and the rest of the brain, flash-frozen, and stored at −80° C. The remaining mice (n=6/group) had their brains isolated and immobilized in 4% paraformaldehyde for 24 hours at 4° C., followed by 30% sucrose in phosphate-buffered saline (PBS) containing 0.02% sodium azide and stored at 4° C. for 3 days. Immunohistochemical sections were performed on brain samples embedded with optimal cutting temperature (OCT) compounds. Samples were sectioned to a thickness of 20 μm using Leica CM1950 (Leica Microsystems, Germany) and stored at 4° C. in a preservation solution until staining with antibodies.
After staining the striatum and substantia nigra of the brain and mounting them on microscopic slides, the slides were washed with PBS containing 0.3% Triton X-100 and peroxidase block for 15 min at room temperature. The slides were washed three times with PBS containing 0.3% Triton X-100 and then blocked at RT (room temperature) for 1 hour in a solution containing PBS, 5% normal goat serum, and 0.3% Triton X-100. Tyrosine hydroxylase antibody was diluted at 1:1000 and incubated overnight at 4° C. The slides were washed with PBS solution and incubated for 1 h at RT with secondary antibody. The slides were washed with PBS solution and the sections were placed in the solution to proceed with the DAB (diaminobenzidine) reaction.
The DAB response was monitored under a microscope for 2 to 3 minutes, and the slides were washed with PBS to stop the DAB response, dehydrated, and mounted using xylene. An Olympus microscope (Olympus, SZ61, BX51) was used to visualize TH stained images. The optical density (OD) value of positive TH staining was measured in the striatum and substantia nigra and analyzed using Image J software.

[2] = test system: Reserpine-induced fibromyalgia rat model; experiment: Reserpine-induced fibromyalgia rat model: pain (von Frey test); format: in vivo; settings: gabapentin 50 mg/kg IP QD; Example 2 3, 10, 30 mg/kg PO QD; days 1, 2, 4, 6
Description: Reserpine-induced fibromyalgia model generation and drug administration were carried out on 6-week-old male SD rats divided into 6 groups as shown in Table 15 below: control group (G1), reserpine+delivery (G2), reserpine+gabapentin 50 mg/kg (G3), reserpine+Example 2 3 mg/kg (G4), 10 mg/kg (G5), and 30 mg/kg (G6). To create a rat fibromyalgia model, reserpine (Sigma-aldrich, 1 mg/kg) dissolved in 0.5% acetic acid was administered subcutaneously once for 3 days from 3 days before the start of the experiment. Beginning on Day 1, the once-daily (QD) delivery body, gabapentin, and embodiment 2 were administered intraperitoneally (IP) or orally (PO) 2 hours before the experiment was performed.
The right hind foot tactile response test (von Frey test) was performed 5 times (before the fibromyalgia model, and on the 1st, 2nd, 4th and 6th days after the model was generated). Before all behavioral tests, rats were accustomed to the environment for 30 minutes, and all experimenters performing behavioral tests were made blind to drug administration information. Before model generation, baseline measurements were performed by performing the von Frey test on all rats. The rat was placed on a wired mesh and placed in a transparent plastic box (20×20×14 cm), and the foot withdrawal threshold was measured by applying a von Frey filament (ascending weight: 0.4, 0.6, 1.4, 2, 4, 6, 8, and 15 g, North Coast) to the middle of the right hind foot to assess foot allodynia.

[3] = test system: SH-SY5Y cells; experiment: Cytoprotective effects in MPP+-induced human neurons (CCK-8); format: cell-based; settings: MPP+ 5 mM induced cytotoxicity, cell viability by CCK-8
Description: SH-SY5Y cells were purchased from ATCC and cultured at 37° C. and 5% CO2 in RPMI medium containing 10% FBS and 1% penicillin and streptomycin. MPP+ was purchased from Sigma Aldrich and treated with 5 mM to induce cytotoxicity.

[4] = test system: PC12 cells; experiment: Neuronal protective efficacy against MPP+ (MTT); format: cell-based; settings: Rattus norvegicus, PC-12, MPP 2 mM, Control = 100, read-out: cell viability (AVE)
Description: (§1) The neuronal toxicity substances 6-OHDA (6-hydroxydopamine hydrobromide) and MPP+ (1-methyl-4-phenylpyridinium) were purchased from Sigma-Aldrich (Saint Louis, MO, USA) and made into 100 mM DMSO stock. PC12 cells were seeded on 96-well plates with 4 pieces of 1×10 per well and incubated for one day. The cells were pretreated with each concentration of embodied compound for 1 h. Subsequently, 40 μM 6-OHDA and 2 mM MPP^+ were added and incubated for 24 hours, respectively. Subsequently, cell viability was measured using MTT (Invitrogen, MA, USA).

[5] = Distribution in the mouse brain (plasma and brain AUC); format: in vivo
Description: The blood-brain barrier permeability in ICR mice was confirmed by oral administration of 10 mg/kg of test material. Male […] mice were fasted for 15 h prior to administration. The test material was administered at a dose of 10 mg/kg and a volume of 5 mL/kg, and the solvent composition was N-Methyl-2-pyrrolidone (NMP), Polyethylene glycol 400 (PEG 400), and distilled water (D.W) at a volume ratio of 10:40:50(%), respectively. After administration, blood and brain tissue samples were taken by sacrificing mice with carbon dioxide inhalation at each time point corresponding to 1, 4, and 8 hours. Whole blood was collected from the abdominal vena cava, and brain samples were collected after systemic perfusion with saline to remove as much blood as possible.
The distribution ratio in mouse plasma and brain was calculated by calculating the AUC after concentration quantification in each tissue.

[6] = test system: PC12 cells; experiment: Neuronal protective efficacy against 6-OHDA (MTT); format: cell-based; settings: Rattus norvegicus, PC-12, 6-OHDA 40 μM, Control = 100, read-out: cell viability (AVE)
Description: as §1

[7] = test system: CDAHFD-induced non-alcoholic steatohepatitis mouse model; experiment: CDAHFD-induced non-alcoholic steatohepatitis mouse model: liver fibrosis (Picrosirius red); format: in vivo; settings: Selonsertib 30 mg/kg, Example 3 10 and 30 mg/kg, Example 2 10 and 30 mg/kg PO QD; CDAHFD diet 4 and 8 weeks
Description: Creation of CDAHFD-induced NASH model and drug administration were carried out by dividing C57BL/6 male mice at 3 weeks of age into 7 groups as shown in Table 16 below. The control group (G1) was fed standard feed and water. Groups G2 to G7 were fed the CDAHFD (Research Diet Inc, #A06071302) diet for 4 and 8 weeks.
Picrosirius red staining was used for histological visualization of collagen fibers. Histopathology analysis evaluated the efficacy of improving liver fibrosis.
For mice in each group, three sections of the liver fixed with 4% PFA (paraformaldehyde) were prepared with paraffin blocks. Paraffin blocks were sectioned to a thickness of 5 μm (Histocore AUTOCUT R, Leica Microsystems, Germany) and the sections were mounted on silane-coated slides (MUTO, JPN) and stored until staining.
Xylene was used to remove paraffin from the slides, and the slides were moisturized and washed. The slides were stained with a solution of Picrosirius red (ab150681, Abcam, UK) and washed off with a solution of acetic acid. The slides were fitted after dehydration and cleaning using alcohol and xylene. For each section, two images of different areas were taken using a microscope (Axioscan7, ZEISS, Germany). The fibrotic area was measured using image J software compared to the total area. FIGS. 23a and 23b are graphs and images of Picrosirius red stained area ratios in the liver of a CDAHFD-induced mouse model of nonalcoholic steatohepatitis.

[8] = molecular target: T1, recombinant human ASK1 protein (Homo sapiens, UniProt Q99683); experiment: Evaluation of ASK1 inhibition activity ([gamma-33P]-ATP, scintillation counting); format: biochemical; settings: 0.5 uM; activity of group without compound set at 100%; read-out: Remaining kinase activity (%) at 0.5 uM
T1 sequence (Q99683 1-1374): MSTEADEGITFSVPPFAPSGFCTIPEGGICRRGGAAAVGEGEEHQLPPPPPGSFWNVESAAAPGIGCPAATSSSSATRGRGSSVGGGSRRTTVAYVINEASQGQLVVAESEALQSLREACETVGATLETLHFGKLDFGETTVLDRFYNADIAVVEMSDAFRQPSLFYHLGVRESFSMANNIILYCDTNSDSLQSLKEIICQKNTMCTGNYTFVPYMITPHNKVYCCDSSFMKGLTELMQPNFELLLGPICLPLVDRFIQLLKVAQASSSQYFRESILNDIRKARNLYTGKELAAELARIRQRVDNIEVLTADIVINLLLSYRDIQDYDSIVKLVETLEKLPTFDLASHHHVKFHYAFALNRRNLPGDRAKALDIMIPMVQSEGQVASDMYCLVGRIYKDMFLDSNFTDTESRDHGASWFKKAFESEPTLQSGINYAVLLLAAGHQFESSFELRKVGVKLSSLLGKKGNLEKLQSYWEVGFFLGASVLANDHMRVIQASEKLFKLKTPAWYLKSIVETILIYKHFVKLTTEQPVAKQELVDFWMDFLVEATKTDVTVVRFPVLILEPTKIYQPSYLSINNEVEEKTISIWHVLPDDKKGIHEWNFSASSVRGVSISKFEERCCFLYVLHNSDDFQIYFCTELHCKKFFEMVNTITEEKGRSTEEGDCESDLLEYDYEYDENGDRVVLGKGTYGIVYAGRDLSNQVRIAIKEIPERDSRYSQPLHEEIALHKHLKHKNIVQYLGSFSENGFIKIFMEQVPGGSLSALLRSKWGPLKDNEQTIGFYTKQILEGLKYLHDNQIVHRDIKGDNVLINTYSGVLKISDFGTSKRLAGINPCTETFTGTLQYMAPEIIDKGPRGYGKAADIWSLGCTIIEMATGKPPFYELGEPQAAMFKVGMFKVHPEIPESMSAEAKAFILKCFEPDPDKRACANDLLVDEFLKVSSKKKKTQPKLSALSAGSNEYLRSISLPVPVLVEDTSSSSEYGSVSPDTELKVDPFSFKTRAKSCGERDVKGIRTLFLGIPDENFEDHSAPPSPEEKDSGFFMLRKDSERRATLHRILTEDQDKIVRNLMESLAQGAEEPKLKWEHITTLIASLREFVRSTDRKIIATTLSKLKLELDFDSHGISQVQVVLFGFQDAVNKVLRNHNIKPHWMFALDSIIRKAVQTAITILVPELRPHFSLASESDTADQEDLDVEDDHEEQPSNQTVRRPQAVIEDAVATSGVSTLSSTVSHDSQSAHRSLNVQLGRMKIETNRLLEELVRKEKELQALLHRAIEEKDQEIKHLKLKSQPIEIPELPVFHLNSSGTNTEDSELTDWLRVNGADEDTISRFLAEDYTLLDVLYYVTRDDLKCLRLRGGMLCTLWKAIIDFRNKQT
Description: The recombinant human ASK1 protein was initiated by adding a mixture of Mg/ATP to the reaction solution (8 mM MOPS PH 7.0, 0.2 mM EDTA, 0.33 mg/mL myelin basic protein, 10 mM Mg Acetate and [gamma-33P]-ATP), and the reaction was terminated by adding 0.5% phosphoric acid after 40 min at room temperature.

[9] = oral 10 mg/kg, samples at 1, 4, 8 hours

Cc1cn(-c2cc(NC(=O)c3ccc(C)c(Nc4nccc(-c5cccnc5)n4)c3)cc(C(F)(F)F)c2)cn1 [Nilotinib, reference compound]
TH levels in striatum [1]: significantly higher than those in G2

NCC1(CC(=O)O)CCCCC1 [Gabapentin, reference compound]
sensitivity (foot withdrawal threshold, von Frey test) [2]: gradually improved over time

Cc1cc(F)c(C(=O)Nc2cccc(-c3nncn3C(C)C)n2)cc1-n1cnc(C2CC2)c1 [Comparative Example 1, Selonsertib, reference compound]
EC50 [3]: 89 nM
viability at 0.1 µM ([4]; compound 0.1 μM): 83.6%
viability at 0.3 µM ([4]; compound 0.3 μM): 81.3%
viability at 1 µM ([4]; compound 1 μM): 81.3%
Kp ([5]; male, brain/plasma, po, 10 mg/kg): 0.004
Aukinf brain [5, 9]: 0.26 ± 0.03 ug*h · g.
Aukinf plasma [5, 9]: 69.9 ± 3.48 µg·mL·h
viability at 0.1 µM ([6]; compound 0.1 μM): 87.9%
viability at 0.3 µM ([6]; compound 0.3 μM): 89.2%
viability at 1 µM ([6]; compound 1 μM): 84.1%
Picrosirius red staining area in the liver [7]: significantly reduced

CCOc1ccc(-n2cnc(C3CC3)c2)cc1C(=O)Nc1cccc(-n2nnc3c2CCCC3)n1 [Example 17, 5-(4-cyclopropyl-1H-imidazol-1-yl)-2-ethoxy-N-(6-(4,5,6,7-tetrahydro-1H-benzo[d][1,2,3]triazol-1-yl)pyridin-2-yl)benzamide]
remaining activity at 0.5 µM [8]: 2%
